Read-outs that look alike come from different tables or passages of the source.
Columns and labels:
[1] = test system: phosphorylation of Cdc2 Y15 (Wee1 substrate) in A427 cells; assay: Phosphorylated Cdc2 MSD Electrochemiluminescence Assay; assay type: cell-based; settings: Homo sapiens
Protocol: Phosphorylated Cdc2 MSD Electrochemiluminescence Assay
The effect of Wee1 inhibitors on cellular phosphorylation of the Wee1 substrate Cdc2 was determined using the following protocol:
A total of 40,000 A427 cells in 100 uL culture medium (1640 medium+10% Fetal bovine serum+1% Penicillin-Streptomycin) were plated in 96-well cell culture plates. 3-fold serial dilutions of test compounds were prepared in completed PBS at 25× final concentration. After 20 hours, the plates were removed and 4 μL of each were added to the cells and incubated with shaking for 30 minutes at 37° C., 5% CO2. Each concentration was tested in duplicate. After a total 6 hours incubation, plates were removed and centrifuged for 5 minutes and 100 uL of supernatant from each well was removed. Cells were washed with 200 μL PBS and lysed with 50 μL MSD lysis buffer (Meso Scale Diagnostics) supplied with 1× complete ULTRA cocktail inhibitor (Roche).
To detect phosphorylation of Cdc2 Y15, 30 μL of capture antibody solution (CST catalog #9116S 1:200) was added into each well of the MSD plate (MSD catalog #L15XB-6), sealed and incubated at 4° C. with shaking (450 rpm) overnight. The antibody solution was removed, wells blocked with BSA solution and plates washed three times with PBST, followed by addition of 30 μl of cell lysate per well. After 2 hours of incubation, plates were washed three times with PBST. 30 μL of 1× detection antibody solution (CST catalog #4539S 1:200) was then added to each well and incubated for 1 hour. Plates were washed three times with PBST and 30 μL of 1× secondary antibody solution (MSD, catalog #:R32AB-1, 1:5000) was added to each well and incubated for 1 hour. Plates were washed three times with PBST and 150 μL of 1× Read Buffer T (MSD, catalog #R92TC-1) was added to each well of the MSD plate. The electrochemiluminescence signal was measured on a MESO SECTOR S600 plate reader. The percentage of remaining phosphorylated Cdc2 signal was calculated following the equation below.
[formula] • HC (high control): Cells treated with DMSO • Cpds: Cells treated with test compounds • LC (low control): Cells treated with positive control Wee1 inhibitor

Wee1 kinase domain = target: T1, Wee1 kinase domain (Homo sapiens, UniProt P30291); assay: Wee1 Kinase Biochemical Assay (ADP-Glo); settings: 15 uM ATP
T1 construct: Wee1 kinase domain was purchased from Carna (catalog #05-177); purchased Carna 05-177
Method in brief: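 Poly(Lys,Tyr 4:1) phosphorylation by the kinase domain is followed as ADP output (ADP-Glo) after 4 h at 25 °C, with ATP at 15 uM. Values are percent inhibition between vehicle and full-inhibition controls.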

[2] = A-427, class symbols, read-out: A427 pCDC2 MSD IC50
[3] = class symbols, 1 nM Wee1 enzyme, 4 hours at 25° C.

T1 sequence (P30291 299-569 limits assumed): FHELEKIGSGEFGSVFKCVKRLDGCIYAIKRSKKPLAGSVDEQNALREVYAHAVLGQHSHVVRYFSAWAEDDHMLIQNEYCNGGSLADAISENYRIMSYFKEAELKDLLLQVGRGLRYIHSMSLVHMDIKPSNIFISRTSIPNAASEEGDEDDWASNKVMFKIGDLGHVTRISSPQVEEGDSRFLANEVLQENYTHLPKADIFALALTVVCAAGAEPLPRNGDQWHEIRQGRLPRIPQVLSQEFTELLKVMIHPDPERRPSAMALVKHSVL

SMILES	IC50 ([1]; A-427, pCDC2 MSD) [nM]	IC50 (Wee1 kinase domain; Wee1 kinase domain, ADP-Glo) [nM]	IC50 [1, 2] [nM]	IC50 (Wee1 kinase domain; [3]) [nM]
C[C@H]1COC(=O)N1c1cccc(N2c3nc(Nc4ccc(N5C[C@H]6C[C@@H]5CN6)cc4)ncc3[C@@]3(C)COC(C)(C)C[C@@H]23)n1 (single isomer, unassigned) [Example 277]	100 to 1000	< 10		
C[C@H]1COC(=O)N1c1cccc(N2c3nc(Nc4cnn(C5CCN(C)CC5)c4)ncc3[C@@]3(C)COC(C)(C)C[C@@H]23)n1 (single isomer, unassigned) [Example 243]	< 100	< 10		
CN[C@@H](Cc1ccc(Nc2ncc3c(n2)N(c2cccc(N4C(=O)OC[C@@H]4C)n2)[C@@H]2CC(C)(C)OC[C@]32C)cc1)C(=O)O (single isomer, unassigned) [Example 321]	100 to 1000	< 10		
C[C@H]1COC(=O)N1c1cccc(N2c3nc(Nc4ccc(N5CCCN(C)CC5)cc4)ncc3[C@@]3(C)COC(C)(C)C[C@@H]23)n1 (single isomer, unassigned) [Example 299]	100 to 1000	< 10		
C[C@H]1COC(=O)N1c1cccc(N2c3nc(Nc4ccc([C@H]5CCNC5)cc4)ncc3[C@@]3(C)COC(C)(C)C[C@@H]23)n1 (single isomer, unassigned) [Example 279]	100 to 1000	< 10		
CNCc1cccc(N2c3nc(Nc4ccc(N5CCS(=N)(=O)CC5)cc4)ncc3[C@@]3(C)COC(C)(C)C[C@@H]23)n1 (single isomer, unassigned) [Example 49]	100 to 1000	< 10		
CN1CCc2ccc(Nc3ncc4c(n3)N(c3cccc(N=S(C)(C)=O)n3)[C@@H]3CC(C)(C)OC[C@]43C)cc2C1 (single isomer, unassigned) [Example 109]	< 100	< 10		
CN1CCC(n2cnc(Nc3ncc4c(n3)N(c3cccc(N=S(C)(C)=O)n3)[C@@H]3CC(C)(C)OC[C@]43C)c2)CC1 (single isomer, unassigned) [Example 205]	< 100	< 10		
CN1CCC(c2cc(Nc3ncc4c(n3)N(c3cccc(N=S(C)(C)=O)n3)[C@@H]3CC(C)(C)OC[C@]43C)on2)CC1 (single isomer, unassigned) [Example 204]	100 to 1000	< 10		
CC1(C)C[C@H]2N(c3cccc(N=S(C)(C)=O)n3)c3nc(Nc4ccc([C@@H]5CCNC5)cc4)ncc3[C@@]2(C)CO1 (single isomer, unassigned) [Example 131]	< 100	< 10		
CN1CC[C@](C)(c2ccc(Nc3ncc4c(n3)N(c3cccc(N=S(C)(C)=O)n3)[C@@H]3CC(C)(C)OC[C@]43C)cc2)C1 (single isomer, unassigned) [Example 168]	< 100	< 10		
CNCc1cccc(N2c3nc(Nc4ccc(N5CCOCC5)c(C)c4)ncc3[C@@]3(C)COC(C)(C)C[C@@H]23)n1 (single isomer, unassigned) [Example 26]	100 to 1000	< 10		
C[C@H]1COC(=O)N1c1cccc(N2c3nc(Nc4ccn(C)c(=O)c4)ncc3[C@@]3(C)COC(C)(C)C[C@@H]23)n1 (single isomer, unassigned) [Example 341]	100 to 1000	< 10		
CC1(C)C[C@H]2N(c3cccc(N=S(C)(C)=O)n3)c3nc(Nc4ccc(O[C@@H]5CCNC5)cc4)ncc3[C@@]2(C)CO1 (single isomer, unassigned) [Example 155]	100 to 1000	< 10		
CN=S1(=O)CCN(c2ccc(Nc3ncc4c(n3)N(c3cccc(CNC)n3)[C@@H]3CC(C)(C)OC[C@]43C)cc2)CC1 (single isomer, unassigned) [Example 65]	100 to 1000	< 10		
CC1(C)C[C@H]2N(c3cccc(N=S(C)(C)=O)n3)c3nc(Nc4cn(C5COC5)cn4)ncc3[C@@]2(C)CO1 (single isomer, unassigned) [Example 232]	1000 to 10000	< 10		

Second part, the compound after the results:

IC50 ([1]; A-427, pCDC2 MSD) [nM]	IC50 (Wee1 kinase domain; Wee1 kinase domain, ADP-Glo) [nM]	IC50 [1, 2] [nM]	IC50 (Wee1 kinase domain; [3]) [nM]	SMILES
		100 to 1000	< 10	CC1(C)C[C@H]2N(c3cccc(N=S(C)(C)=O)n3)c3nc(NC(=O)OC4CCOCC4)ncc3[C@@]2(C)CO1 (single isomer, unassigned) [Example 772]
		1000 to 10000	< 10	CNCc1cccc(N2c3nc(Nc4ccc(C(C)(C)C(=O)O)cc4)ncc3[C@@]3(C)COC(C)(C)C[C@@H]23)n1 (single isomer, unassigned) [Example 458]
		100 to 1000	< 10	CN1CCC(c2ccc(Nc3ncc4c(n3)N(c3cccc(S(C)(=O)=O)n3)[C@@H]3CC(C)(C)OC[C@]43C)cc2)CC1 (single isomer, unassigned) [Example 757]
		100 to 1000	< 10	CN1CC2(C1)CN(c1ccc(Nc3ncc4c(n3)N(c3cccc(N5CCOC5=O)n3)[C@@H]3CC(C)(C)OC[C@]43C)cc1)C2 [Example 707, 3-(6-((4bR,8aR)-4b,7,7-trimethyl-2-((4-(6-methyl-2,6-diazaspiro[3.3]heptan-2-yl)phenyl)amino)-4b,7,8,8a-tetrahydropyrano[3′,4′:4,5]pyrrolo[2,3-d]pyrimidin-9(5H)-yl)pyridin-2-yl)oxazolidin-2-one]
		100 to 1000	< 10	Cc1cc(Nc2ncc3c(n2)N(c2cccc([C@@H]4CCCN4)n2)[C@@H]2CC(C)(C)OC[C@]32C)ccc1N1CCOCC1 (single isomer, unassigned) [Example 529]
		< 100	< 10	Cn1ccc(Nc2ncc3c(n2)N(c2cccc(P(C)(C)=O)n2)[C@@H]2CC(C)(C)OC[C@]32C)cc1=O (single isomer, unassigned) [Example 779]
		100 to 1000	< 10	CC1(C)C[C@H]2N(c3cccc(N4CCOC4=O)n3)c3nc(Nc4ccc([C@]5(C)CCNC5)cc4)ncc3[C@@]2(C)CO1 [Example 664, 3-(6-((4bR,8aR)-4b,7,7-trimethyl-2-((4-((S)-3-methylpyrrolidin-3-yl)phenyl)amino)-4b,7,8,8a-tetrahydropyrano[3′,4′:4,5]pyrrolo[2,3-d]pyrimidin-9(5H)-yl)pyridin-2-yl)oxazolidin-2-one]
		100 to 1000	< 10	CC1(C)C[C@H]2N(c3cccc(N=S(C)(C)=O)n3)c3nc(NC(=O)C4CC4)ncc3[C@@]2(C)CO1 (single isomer, unassigned) [Example 399]
		100 to 1000	< 10	CC1(C)C[C@H]2N(c3ccc4c(n3)CCNC4)c3nc(Nc4ccc(N5CCOCC5)cc4)ncc3[C@@]2(C)CO1 (single isomer, unassigned) [Example 562]
1000 to 10000	< 10			CNCc1cccc(N2c3nc(Nc4ccn([C@H]5CCOC5)c(=O)c4)ncc3[C@@]3(C)COC(C)(C)C[C@@H]23)n1 (single isomer, unassigned) [Example 389]
		1000 to 10000	< 10	CN1CC2CC1CN2c1ccc(Nc2ncc3c(n2)N(c2cccc(N=S(C)(C)=O)c2)C2CC(C)(C)OCC32C)cc1 (single isomer, unassigned) [Example 712]
1000 to 10000	< 10			CC1(C)C[C@H]2N(c3cccc([C@H]4CCCN4)n3)c3nc(Nc4ccn(C5CCOCC5)c(=O)c4)ncc3[C@@]2(C)CO1 (single isomer, unassigned) [Example 394]
		100 to 1000	< 10	CNCc1cccc(N2c3nc(Nc4cccc(N5CCOCC5)c4)ncc3[C@@]3(C)COC(C)(C)C[C@@H]23)n1 (single isomer, unassigned) [Example 470]
		100 to 1000	< 10	CC1(C)C[C@H]2N(c3cccc([C@H]4CNCCO4)n3)c3nc(Nc4ccc(N5CCOCC5)cc4)ncc3[C@@]2(C)CO1 [Example 737, (4bR,8aR)-4b,7,7-trimethyl-9-(6-((R)-morpholin-2-yl)pyridin-2-yl)-N-(4-morpholinophenyl)-4b,5,7,8,8a,9-hexahydropyrano[3′,4′:4,5]pyrrolo[2,3-d]pyrimidin-2-amine]
		< 100	< 10	CN1CC(c2ccc(Nc3ncc4c(n3)N(c3cccc(N=S5(=O)CCCC5)n3)[C@@H]3CC(C)(C)OC[C@]43C)cc2)C1 (single isomer, unassigned) [Example 754]
		< 100	< 10	CN1CCN(c2cncc(Nc3ncc4c(n3)N(c3cccc(N=S(C)(C)=O)n3)[C@@H]3CC(C)(C)OC[C@]43C)c2)CC1 (single isomer, unassigned) [Example 483]

— US20260166039A1 (SCHRÖDINGER, INC., priority 2022, published 2026)
